Results on two substances are retold here after patent US20230212246A1, “TGF-B AS A THERAPEUTIC TARGET FOR INTRACRANIAL ANEURYSM” (THE BOARD OF REGENTS OF THE UNIVERSITY OF TEXAS SYSTEM, priority 2022, published 2023).

The test system of test [1] is p-Smad2. Description: Activin treatment time course of p-Smad2 in HBMEC. The format is cell-based, human. The conditions noted are these: HBMEC cells, FIG. 6a. Here is the method: (§1) Cells were lysed in 1% Triton lysis buffer and sonicated briefly before centrifuged at 18506 g for 30 min at 4° C. Total cell lysates were added by 2X SDS sample buffer and then subjected to discontinuous SDS-PAGE analysis. Proteins were transferred to nitro-cellulose membranes using a Bio-Rad (Hercules, Calif.) mini transfer apparatus followed by blocking with 5% nonfat milk. Primary antibodies and secondary antibodies were used usually at 1:1000 and 1:10000 dilutions respectively before using an Odyssey system to detect the fluorescence signal.
(§2) FIG. 3 is a drawing depicting a representative model of the TGFβ pathway. […] As depicted in FIG. 3, it is possible to monitor the phosphorylation level of Smad2 or Samd3 as a reporter for TGFβ signaling activity.
To evaluate the specificity of the requirement for THSD1 for TGFβ signaling in endothelial cells we also tested Activin treatment. […] FIG. 7 is a schematic illustrating that THSD1 has a thrombospondin domain (TSP1) that interacts with mature TGFβ ligand.

The test system of test [2] is p-Smad2. The experiment in a line: TGFβ treatment time course of p-Smad2 in HUVEC. Type of test: cell-based, human. Conditions: HUVEC (cell line not restated), FIG. 5c. How it is done:
as §1, §2
(§3) To further investigate a potential role for the TGFβ Signaling pathway in the pathology of aneurysms, specifically IA, we also tested TGFβ treatment in different endothelial cells including HBMEC and HUVEC. HBMEC is a primary brain endothelial cells and HUVEC is primary umbilical vein endothelial cells. […] THSD1 knockdown can block TGFβ signaling.

Test [3] concerns p-Smad2. Description: TGFβ treatment time course of p-Smad2 in HBMEC. The format is cell-based, human. The conditions noted are these: FIG. 5a. Here is the method: as §1, §2, §3
Test [4] concerns p-Smad2. The experiment in a line: TGFβ1 time course of p-Smad2 (Western blot) in HEK293T cells. Type of test: cell-based. The conditions noted are these: HEK293T cells treated with TGFβ1 at different time points, FIG. 4a. Here is the method:
HEK293T cells were maintained in DMEM medium (Corning, 10-013-CV) containing 10% fetal bovine serum (Invitrogen, 10082147), 100 IU penicillin, and 100 μg/ml streptomycin. Transfections of small interfering RNAs and plasmid DNA were performed using lipofectamine 2000 (Life Technologies, 11668027) according to the manufacturer's instructions. Alternatively, for cells such as endothelial cells that are hard to transfect, we will utilize lentiviral system to generate stable cell lines.
as §1
FIG. 3 is a drawing depicting a representative model of the TGFβ pathway. […] As depicted in FIG. 3, it is possible to monitor the phosphorylation level of Smad2 or Samd3 as a reporter for TGFβ signaling activity. […]
In general terms: A western blot detects proteins with antibodies after separation by electrophoresis.

For Activin, in the test on p-Smad2 [1], the “time at which p-smad2 reaches the highest level” value is recorded as “around 40 mins”.

With “TGFβ1: TGFβ ligand; polypeptide used to treat cells and induce Smad2 phosphorylation”, the “time at which p-smad2 reaches the highest level” value with p-Smad2 [2] is “around 40 mins”. Further, the “time at which p-Smad2 reaches the maximum level” value in the test on p-Smad2 [3] was “around 40 mins”. The “time at which p-Smad2 reaches plateau” value in the test on p-Smad2 [4] was 60 min.
